Experimental data: article PMC6151961 (Journal of Enzyme Inhibition and Medicinal Chemistry, 2018)
Like-named read-outs stand apart in the source and are kept apart here.

Legend:
CA IX [1] = biological target: T1, CA IX (Homo sapiens, UniProt Q16790); experiment: biochemical
CA IX [2] = biological target: T1, CA IX; details: cited from earlier work; for Ki: read-out: Ki
[3] = library compounds with IDs A… and B…, from observed Ki (nM)
[4] = experimental value used for the QSPR model, library compounds (IDs A…, B…), equals log10 of Ki in nM
[5] = experimental value from the library Ki (IDs A…, B…), values equal log10 of Ki in nM
[6] = library compounds (IDs A…, B…), values equal log10 of Ki in nM, ref ChEMBL and BindingDB
[7] = observed Ki of library compounds (IDs A…, B…), ref ChEMBL and BindingDB
[8] = experimental pKi towards CA IX, library compounds, ref ChEMB database (ID A), BindingDB (ID B)
[9] = observed Ki towards CA IX, library compounds, ref ChEMB database (ID A), BindingDB (ID B)
[10] = library compounds (IDs A…, B…) of Table S4, ref ChEMBL and BindingDB

Q: Which “log10 of Ki in nM” value (CA IX [1]; [3]) does the source give for `CCCN(CCC)S(=O)(=O)c1ccc(C(=O)N[C@@H](CCSC)C(N)=O)cc1` [A0860] here?
A: Its value is 1.301.

Q: With `Nc1c(C(=O)N/N=C2\C(=O)N(Cc3ccccc3)c3ccccc32)cnn1-c1ccc(S(N)(=O)=O)cc1` [A0861] as the compound, how does the “log10 of Ki in nM” value (CA IX [1]) read?
A: Its value is 1.301.

Q: For `NS(=O)(=O)c1ccc(Nc2nc(Nc3ccccc3)nc(N3CCOCC3)n2)cc1` [A0867], which “log10 of Ki in nM” value (CA IX [1]; [4]) is on record?
A: The value was 1.303.

Q: For `Cc1ccc(-c2cc(CO)nn2-c2ccc(S(N)(=O)=O)cc2)cc1` [A0902], which “log10 of Ki in nM” value (CA IX [1]; [5]) is on record?
A: Its value is 1.342.

Q: For `O=c1ccc2ccc(OCc3cn(-c4ccc(C(F)(F)F)cc4)nn3)cc2o1` [A0920], which “log10 of Ki in nM” value (CA IX [1]; [5]) is on record?
A: The value was 1.362.

Q: For `CCCN(CCC)S(=O)(=O)c1ccc(C(=O)N[C@@H](CCC(=O)O)C(N)=O)cc1` [A0921], which “log10 of Ki in nM” value (CA IX [1]; [5]) is on record?
A: Its value is 1.362.

Q: Which “log10 of Ki in nM” value (CA IX [1]) does the source give for `Nc1c(Cl)cc(S(=O)(=O)Nc2nnc(S(N)(=O)=O)s2)cc1Br` [A0922] here?
A: The value was 1.362.

Q: Which “log10 of Ki in nM” value (CA IX [1]; [5]) does the source give for `CCCN(CCC)S(=O)(=O)c1ccc(C(=O)N[C@@H](Cc2c[nH]c3ccccc23)C(N)=O)cc1` [A0923] here?
A: Its value is 1.362.

Q: Which “log10 of Ki in nM” value (CA IX [1]; [5]) does the source give for `CCOC(=O)NC(=S)N(CC(=O)c1ccccc1)c1ccc(S(N)(=O)=O)cc1` [A0977] here?
A: Its value is 1.398.

Q: With `NS(=O)(=O)c1ccc(/N=C/c2ccccc2)c(F)c1` [A1026] as the compound, how does the “log10 of Ki in nM” value (CA IX [1]; [4]) read?
A: Its value is 1.447.

Q: With `Cc1cc(=O)oc2cc(-n3cc(CSc4ccccc4)nn3)ccc12` [A1053] as the compound, how does the “log10 of Ki in nM” value (CA IX [1]; [3]) read?
A: The value was 1.471.

Q: Which “log10 of Ki in nM” value (CA IX [1]; [5]) does the source give for `COc1ccc(-c2cn(-c3ccc(S(N)(=O)=O)cc3)c(=S)[nH]2)cc1` [A1063] here?
A: The value was 1.477.

Q: For `Cc1ccc(-c2nn(-c3ccc(S(N)(=O)=O)cc3)cc2-c2nc3ccccc3[nH]2)cc1` [A1267], which “log10 of Ki in nM” value (CA IX [1]; [5]) is on record?
A: The value was 1.693.

Q: Which “log10 of Ki in nM” value (CA IX [1]; [4]) does the source give for `CCCC(=O)OC[C@H]1O[C@@H](n2cc(-c3ccc(S(N)(=O)=O)cc3)nn2)[C@H](OC(=O)CCC)[C@@H](OC(=O)CCC)[C@H]1OC(=O)CCC` [A1285] here?
A: The value was 1.714.

Q: With `NS(=O)(=O)Nc1ccc(S(=O)(=O)Nc2nnc(S(N)(=O)=O)s2)cc1` [A1288] as the compound, how does the “log10 of Ki in nM” value (CA IX [1]; [5]) read?
A: Its value is 1.716.

Q: Which “log10 of Ki in nM” value (CA IX [1]; [4]) does the source give for `O=S1(=O)C=Cc2cc(-n3cc(C4CC4)nn3)ccc2O1` [A1333] here?
A: Its value is 1.782.

Q: For `Fc1ccc(-c2nn(-c3ccccc3)cc2-c2nc3ccccc3[nH]2)cc1` [A1367], which “log10 of Ki in nM” value (CA IX [1]; [3]) is on record?
A: The value was 1.813.

Q: Which “log10 of Ki in nM” value (CA IX [1]; [3]) does the source give for `Cc1nnnn1-c1ccc2c(c1)C=CS(=O)(=O)O2` [A1375] here?
A: The value was 1.819.

Q: For `O=S1(=O)C=Cc2cc(-n3cnnn3)ccc2O1` [A1395], which “log10 of Ki in nM” value (CA IX [1]; [4]) is on record?
A: Its value is 1.836.

Q: For `CC(=O)OC[C@H]1O[C@@H](SCc2nnn(-c3ccc(S(N)(=O)=O)cc3)c2C#CCO)[C@H](OC(C)=O)[C@@H](OC(C)=O)[C@@H]1OC(C)=O` [A1422], which “log10 of Ki in nM” value (CA IX [1]; [4]) is on record?
A: The value was 1.857.

Q: What does the source list for `NS(=O)(=O)c1ccc(N[C@H]2SC[C@H](c3ccc(F)cc3F)N2C2CCCCC2)cc1` [B0547]?
A: log10 of Ki in nM (CA IX [2]; [6]): 1.934; Ki (CA IX [2]; [7]): 86 nM

Q: Which “log10 of Ki in nM” value (CA IX [2]; [8]) does the source give for `CC(=O)OC[C@@H]1O[C@@H](SCc2nnn(-c3ccc(S(N)(=O)=O)cc3)c2I)[C@H](OC(C)=O)[C@@H](OC(C)=O)[C@@H]1OC(C)=O` [B0581] here?
A: The value was 1.978.

Q: What about the Ki (CA IX [2]; [9]) of the same compound?
A: Its Ki is 95 nM.

Q: Which results are given for `NS(=O)(=O)c1ccc(CCNS(=O)(=O)[C@@H]2O[C@@H](C(=O)O)[C@@H](O)[C@@H](O)[C@@H]2O)cc1` [B0584]?
A: Ki (CA IX [2]; [10]): 96 nM; log10 of Ki in nM (CA IX [2]; [6]): 1.982

Q: What does the source list for `CC(=O)OC[C@@H]1O[C@H](SNCCc2ccc(S(N)(=O)=O)cc2)[C@@H](OC(C)=O)[C@H](OC(C)=O)[C@@H]1OC(C)=O` [B0585]?
A: log10 of Ki in nM (CA IX [2]): 1.987; Ki (CA IX [2]): 97 nM

Q: What does the source list for `CC(=O)OC[C@@H]1O[C@@H](S(=O)(=O)Cc2nnn(-c3ccc(S(N)(=O)=O)cc3)c2I)[C@H](OC(C)=O)[C@@H](OC(C)=O)[C@@H]1OC(C)=O` [B0586]?
A: log10 of Ki in nM (CA IX [2]): 1.987; Ki (CA IX [2]): 97 nM

Q: Which “log10 of Ki in nM” value (CA IX [2]) does the source give for `CC1(C)O[C@H]2[C@H](CO[C@]3(CNC(=S)Nc4ccc(S(N)(=O)=O)cc4F)OC(C)(C)O[C@H]23)O1` [B0608] here?
A: Its value is 2.041.

Q: What about the Ki (CA IX [2]) of the same compound?
A: The Ki was 110 nM.

Q: For `NS(=O)(=O)c1ccc(-c2cn([C@H]3O[C@H](CO)[C@@H](O)[C@@H](O)[C@H]3O)nn2)cc1` [B0619], which “log10 of Ki in nM” value (CA IX [2]) is on record?
A: The value was 2.079.

Q: What about the Ki (CA IX [2]) of the same compound?
A: Its Ki is 120 nM.

Q: With `NS(=O)(=O)c1ccc(-c2cn([C@@H]3O[C@@H](CO)[C@H](O)[C@@H]3O)nn2)cc1` [B0623] as the compound, how does the “log10 of Ki in nM” value (CA IX [2]) read?
A: Its value is 2.083.

Q: And the Ki (CA IX [2])?
A: Its Ki is 121 nM.

Q: Which results are given for `CC(=O)OC[C@@H]1O[C@H](O[C@@H]2[C@@H](OC(C)=O)[C@H](OC(C)=O)[C@H](n3cc(COC(=O)c4ccc(S(N)(=O)=O)cc4)nn3)O[C@@H]2COC(C)=O)[C@H](OC(C)=O)[C@H](OC(C)=O)[C@H]1OC(C)=O` [B0633]?
A: log10 of Ki in nM (CA IX [2]): 2.114; Ki (CA IX [2]): 130 nM

Q: What does the source list for `Cc1cc(=O)oc2cc(O[C@H]3O[C@@H](C)[C@H](O)[C@H](O)[C@H]3O)ccc12` [B0671]?
A: log10 of Ki in nM (CA IX [2]): 2.303; Ki (CA IX [2]): 201 nM

Q: Which “log10 of Ki in nM” value (CA IX [2]; [6]) does the source give for `COc1cc2c(cc1OC)[C@@H](c1ccc([N+](=O)[O-])cc1)N(S(N)(=O)=O)CC2` [B0740] here?
A: The value was 2.681.

Q: What about the Ki (CA IX [2]; [7]) of the same compound?
A: The Ki was 480 nM.

Q: What does the source list for `CC1=CC(C)C=C(C)N1CCc1ccccc1-c1ccccc1` [B0751]?
A: Ki (CA IX [2]; [10]): 710 nM; log10 of Ki in nM (CA IX [2]; [6]): 2.851

Q: For `COc1ccc(/C=C\C(=O)C[C@H]2O[C@H](COC(C)=O)[C@@H](OC(C)=O)[C@@H](OC(C)=O)[C@@H]2OC(C)=O)cc1OC` [B0756], which Ki (CA IX [2]; library compounds (IDs A…, B…), observed Ki towards CA IX, ref ChEMBL and BindingDB) is on record?
A: Its Ki is 753 nM.

Q: What about the “log10 of Ki in nM” value (CA IX [2]; [6]) of the same compound?
A: Its value is 2.877.

Q: Which results are given for `CC1=CC(C)C=C(C)N1CCc1ccccc1C` [B0765]?
A: log10 of Ki in nM (CA IX [2]; [6]): 2.919; Ki (CA IX [2]; [7]): 830 nM

Q: With `CC(=O)Nc1ccc(S(=O)(=O)NC[C@H](C)F)cc1` [B0810] as the compound, how does the “log10 of Ki in nM” value (CA IX [2]; [8]) read?
A: Its value is 3.643.

Q: And the Ki (CA IX [2]; [9])?
A: Its Ki is 4400 nM.
